Structures are written as SMILES. Like-named read-outs stand apart in the source and are kept apart here.

The record followed here is PMC8567874, “Metronomic delivery of orally available pemetrexed-incorporated colloidal dispersions for boosting tumor-specific immunity” (Drug Delivery, 2021).

Data set [1] is described as follows: In vitro Caco-2 cell monolayer permeability. To be noted: human, equivalent to 50 µg/mL PMX, n = 7, read-out: Apparent permeability (Papp). The class given is in vitro ADME. On the procedure: To compare the in vitro apparent permeability (Papp) of PMX, PMX/DL(1:1), PMX/DL(1:2), PMX/DL(1:1)-CD, and PMX/DL(1:2)-CD across a Caco-2 (ATCC® HTB-37™; American Type Culture Collection, Manassas, VA, USA) cell monolayer, Caco-2 cells were seeded onto 24-well Transwell® filter inserts in Dulbecco's modified Eagle's medium (DMEM) containing 10% (v/v) fetal bovine serum and 1% penicillin/streptomycin, at a density of 1 × 10^5 cells/well, cultured for 14–16 days to form a confluent monolayer with the transepithelial electrical resistance (TEER) >350 Ω·cm^2. After the media in the apical and basolateral compartments were replaced with Hank’s balanced salt solution (HBSS) and stabilized for 20 min at 37 °C, 100 µL of the drug solution diluted with HBSS (equivalent to 50 µg/mL PMX) and 600 µL of HBSS were loaded into the apical and basolateral compartments in each well, respectively. During incubation at 37 °C, 100 µL of sample solution was withdrawn from each basolateral compartment, and the volume was replaced using fresh HBSS at 0.5, 1, 2, 3, 4, and 5 h. After passing through a polyvinylidene fluoride (PVDF) membrane filter (pore size: 0.45 µm), the concentration of PMX in each sample solution was measured using the HPLC system at 254 nm, with a Luna C18 column (4.6 × 250 mm, 5 µm, 100 Å) at 25 °C. […]
On the technique in general: Caco-2 cells form a polarised layer with tight junctions and transporters.

The nature of data set [2]: In situ single-pass rat intestinal perfusion. The data set is classed as in vivo. The settings on record: other: in situ single-pass intestinal perfusion; for concentration at 15 min / concentration at 30 min / concentration at 45 min / concentration at 60 min / concentration at 75 min / concentration at 90 min / concentration at 105 min / concentration at 120 min: rat, outlet intestinal perfusate, 100 μg/mL, rat intestinal perfusion. On the procedure:
The in situ single-pass intestinal effective permeabilities (Peff) of PMX, PMX/DL(1:1), PMX/DL(1:2), PMX/DL(1:1)-CD, and PMX/DL(1:2)-CD were investigated in rats. The rats were fasted overnight for 12–16 h with free access to water before the experiment and then anesthetized by intramuscular injection of tiletamine·HCl–zolazepam mixture (1:1 [w/w]; 40 mg/kg). With the animal in the supine position, the abdominal cavity was opened using a midline longitudinal incision, and the intestine (duodenum, jejunum, and ileum) was exposed and subsequently intubated at the two ends with a polypropylene perfusion tube connected to a peristaltic pump (Harvard Apparatus, Holliston, MA, USA). After covering the entire excised area with a cotton pad soaked with warm normal saline, the cannulated intestinal segments were flushed with blank perfusion buffer at 37 °C for 30 min, at a constant flow rate of 0.5 mL/min, to remove residual intestinal contents. Then, drug solutions of PMX, PMX/DL(1:1), PMX/DL(1:2), PMX/DL(1:1)-CD, or PMX/DL(1:2)-CD (equivalent to 100 μg/mL PMX) were perfused through the intestinal lumen at 37 °C and a constant flow rate of 0.2 mL/min. After allowing 30 min to achieve a steady-state, outlet perfusate was collected every 15 min for 120 min. In addition, to assess the reliability of the perfusion study, 100 μg/mL fluorescein diluted in perfusion buffer was perfused separately under the same conditions and the collected samples were analyzed at excitation/emission wavelengths of 494/512 nm using a microplate reader (PerkinElmer multimode plate reader; PerkinElmer, Waltham, MA, USA) as a low-permeability marker. During the experiment, all animals were kept on heated pads under a heat lamp to maintain a normal body temperature. At the end of the experiment, the lengths and radii of the cannulated intestinal segments were measured, taking care to avoid stretching them. The collected samples were then filtered using 0.45-μm PVDF filters and stored at −20 °C before analyses. The outlet concentration of PMX in the perfusate was analyzed by HPLC as described above. In addition, the errors caused by rat intestinal water absorption and secretion during perfusion were corrected by the net water flux (ratio of the […] perfusate flows, Qout/Qin) and the corrected drug concentration in perfusate for each formulation was calculated based on the following equation (i.e. gravimetric method): Cout,corr = Cout × (Qout/Qin), where Cout,corr is the corrected outlet PMX concentration (µg/mL), Cout is the PMX outlet concentration (µg/mL), Qin (mL/min) is the flow rate entering the intestine, and Qout (mL/min) is the measured perfusate exit flow (net weight/15 min, assumed density of 1.0 g/mL) for the specified time interval. After correction, the Peff was calculated using the equation: Peff = Qin/A × ln(Cout,corr/Cin), where A is the intestinal area available for absorption (2πrl) based on its length (l) and radius (r).

A further data set relates to CT26.CL25 cells. Kind of data set: Immunoblotting of CRT and HMGB-1. The class given is cell-based. The settings on record: CT26.CL25, 300 µM, 48 h, western blot. On the procedure: CT26.CL25 cells (1 × 10^5 per well) cultured in 6-well plates were treated with 300 µM DL, 300 µM PMX or PMX/DL (equivalent 300 µM PMX) for 48 h. The cells were then lysed in RIPA buffer with protease and phosphatase inhibitors (GenDEPOT, Barker, TX, USA). Each sample was loaded with 20 µg of protein and fractionated using SDS-PAGE (Biosesang, Gyeonggi-do, South Korea), followed by wet transfer to nitrocellulose membrane (Bio-Rad Laboratories, Inc., Hercules, CA, USA). Anti-CRT, anti-HMGB-1, GAPDH rabbit mAb (Cell Signaling Technology, Danvers, MA, USA), and anti-rabbit IgG peroxidase (Sigma–Aldrich) antibodies were used.
A general note: In western blotting, separated proteins are transferred to a membrane and probed.

Data set [3] can be described thus: Octanol/water apparent partition coefficient. The data set is classed as physicochemical. The settings on record: n = 4, read-out: Log P (logarithm of the octanol/water partition coefficient). From the text:
^aLogarithm of the octanol/water partition coefficient. Each value represents the mean ± standard deviation (n = 4).

The mark [4] stands for this setting: read-out: Corrected outlet PMX concentration (Cout,corr).
Where [5] appears, read: read-out: Outlet concentration of PMX (Cout).

For `Nc1nc2[nH]cc(CCc3ccc(C(=O)N[C@@H](CCC(=O)O)C(=O)O)cc3)c2c(=O)[nH]1` [PMX, Pemetrexed], the Papp at 5 h, 50 µg/mL in data set [1] worked out at 12 ± 3.49 nm/s. In addition, the Papp at 120 min, 100 μg/mL in data set [2] (rat intestine, n = 4, read-out: Effective permeability (Peff)) came to 830 ± 44 nm/s. In addition, in data set [2] (setting [4]), the concentration at 15 min came out at 93.8 ± 2.73 µg/mL, the concentration at 30 min is 96 ± 1.36 µg/mL, the concentration at 45 min was 94.1 ± 0.46 µg/mL and the concentration at 60 min was determined as 95.4 ± 0.19 µg/mL. In data set [2] (setting [4]), the concentration at 75 min was 95.8 ± 0.87 µg/mL, the concentration at 90 min was 96.5 ± 0.54 µg/mL, the concentration at 105 min came to 95.8 ± 0.27 µg/mL and the concentration at 120 min was found to be 96.4 ± 1.52 µg/mL. In data set [2] (setting [5]), the concentration at 15 min turned out to be 93.1 ± 1.73 µg/mL, the concentration at 30 min stood at 93.2 ± 0.04 µg/mL, the concentration at 45 min came out at 92.5 ± 0.51 µg/mL and the concentration at 60 min was 94.9 ± 0.19 µg/mL. Also, in data set [2] (setting [5]), the concentration at 75 min worked out at 94.7 ± 1.19 µg/mL, the concentration at 90 min is 95.3 ± 0.87 µg/mL, the concentration at 105 min is 94.7 ± 1.92 µg/mL and the concentration at 120 min was determined as 94.7 ± 1.82 µg/mL. For the same molecule, the “CRT- and HMGB-1-protein content compared to untreated and DL-treated cells” value in the data set with CT26.CL25 cells is given as “higher”. Also, the logP in data set [3] was -1.14 ± 0.01.
